From the supplement of paper PMC10949913

Legend:
Test in all cases: area under concentration-response curve (viability) (AUC (a.u.)); higher = less active
Details in all cases: 48 h
CU-ACC2 = tested on: CU-ACC2
Summary of the method: (§1)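 Cells from three adrenocortical carcinoma lines were seeded at 500–1,000 cells/well in 5 µL medium in 1,536-well plates. Each library compound was added as 23 nL at 11 concentrations, and after 48 h CellTiter-Glo was added for 15 minutes at room temperature before reading luminescence. Plate-wise normalisation to vehicle and empty-well controls preceded curve fitting. AC50 and area under the curve were calculated only for inhibitory or non-responding curve classes.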

CU-ACC1 = tested on: CU-ACC1
Summary of the method: as §1

NCI-H295R = tested on: NCI-H295R
Summary of the method: as §1

Row | SMILES | area under concentration-response curve (CU-ACC2) | area under concentration-response curve (CU-ACC1) | area under concentration-response curve (NCI-H295R)
1 | C/C=C(/C)C(=O)O[C@H]1C(C)=CC23C(=O)C(C=C(CO)[C@@H](O)[C@]12O)[C@H]1[C@@H](C[C@H]3C)C1(C)C (some centres not stated) | 505 | 399 | 484
2 | Cc1c(OCC(F)(F)F)ccnc1C[S+]([O-])c1nc2ccccc2[nH]1 (configuration not stated) | 624 | 526 | 571
3 | CN[C@@H]1[C@H](O[C@H]2[C@H](O[C@@H]3[C@@H](O)[C@H](O)[C@@H](NC(=N)N)[C@H](O)[C@H]3NC(=N)N)O[C@@H](C)[C@]2(O)C=O)O[C@@H](CO)[C@H](O)[C@H]1O | 606 | 516 | 553
4 | Nc1nccc(-c2c(-c3ccc(F)cc3)ncn2C2CCN(Cc3ccon3)CC2)n1 | 578 | 467 | 495
5 | COCCNc1cc(NC(=O)N2CCCc3cc(CN4CCN(C)CC4=O)c(C=O)nc32)ncc1C#N | 550 | 552 | 564
6 | N#Cc1ccc(C(c2ccc(C#N)cc2)n2cncn2)cc1 | 428 | 488 | 516
7 | CC\1=C(C(\N=C(/N1)C2=CC(=NC=C2)Cl)C3=C(F)C=C(Cl)C=C3)/C(=O)NC4=C(F)C=C5[NH]N=CC5=C4 (configuration not stated) | 466 | 492 | 488
8 | Cc1ccc(-c2ncn(-c3ccc(Nc4nccc(-c5cccc(N6CCOCC6)c5)n4)cc3)n2)cn1 | 543 | 370 | 549
9 | C=CC(=O)N1CCC(CNc2ncnc(N)c2-c2ccc(Oc3ccccc3)cc2)CC1 | 615 | 550 | 566
10 | C[C@@H]1C(=O)OC2[C@H](O)[C@]34[C@H]5C[C@@H](C(C)(C)C)[C@]36[C@@H](OC(=O)[C@@H]6O)O[C@@]4(C(=O)O5)[C@]21O (some centres not stated) | 556 | 463 | 532
11 | Cc1cc(C)c2c(c1)[C@@H](N(Cc1cc(C(F)(F)F)cc(C(F)(F)F)c1)c1nnn(C)n1)CCCN2C[C@H]1CC[C@H](C(=O)O)CC1 | 582 | 489 | 529
12 | C[S+](=O)([O-])Nc1ccc([N+](=O)[O-])cc1Oc1ccccc1 | 639 | 544 | 583
13 | CC(N)C12CC3CC(CC(C3)C1)C2 (configuration not stated) | 523 | 507 | 494
14 | CN1C(=O)[C@@H](NC(=O)[C@H](CCC(F)(F)F)[C@H](CCC(F)(F)F)C(N)=O)\N=C(C2=CC=CC=C2)/C3=CC=CC=C13 | 610 | 514 | 530
15 | C[C@]12CC[C@@H]3c4ccc(O)cc4CC[C@H]3[C@@H]1[C@@H](O)[C@@H](O)[C@@H]2O | 565 | 494 | 520
16 | Cc1c(N)nc([C@H](CC(N)=O)NC[C@@H](N)C(N)=O)nc1C(=O)N[C@H](C(=O)N[C@@H](C)[C@H](O)[C@@H](C)C(=O)N[C@@H](C(=O)NCCc1nc(-c2nc(C(=O)NCCC[S+](C)C)cs2)cs1)[C@@H](C)O)C(O[C@H]1O[C@H](CO)[C@H](O)[C@@H](O)[C@H]1O[C@H]1O[C@H](CO)[C@@H](O)[C@H](OC(N)=O)[C@@H]1O)c1c[nH]cn1 (some centres not stated) | 614 | 508 | 530
17 | CN1C(=O)CC[S+](=O)([O-])C1c1ccc(Cl)cc1 (configuration not stated) | 534 | 553 | 572
18 | CN(C)NC(=O)CCC(=O)O | 410 | 405 | 397
19 | CC(C)(CO)[C@@H](O)C(=O)NCCC(=O)O | 487 | 506 | 509
20 | COc1cccc(Nc2c(C(N)=O)cnc3c(C)cc([S+](=O)([O-])c4cccc(C(=O)N(C)C)c4)cc23)c1 | 578 | 466 | 545
21 | O=C([C@@H](Cc1cccc(C(F)(F)F)c1)N[S+](=O)([O-])c1cc(F)c2c(c1)CCNC2)N1CCCC1 | 515 | 528 | 535
22 | O=C([O-])C(O)Cc1ccc(O)c(O)c1 (configuration not stated) | 589 | 460 | 553

Row | SMILES | area under concentration-response curve (CU-ACC2) | area under concentration-response curve (CU-ACC1) | area under concentration-response curve (NCI-H295R)
23 | CC1COC2(CCN(CC2)C/3=N/C(=O)C4=CC(=CC(=C4S3)[N+]([O-])=O)C(F)(F)F)O1 (configuration not stated) | 472 | 416 | 462
24 | O=C(CBr)N1CC([N+](=O)[O-])([N+](=O)[O-])C1 | 464 | 454 | 439
25 | O=C1NC(=O)/C(=C/c2cccc(C(F)(F)F)c2)S1 | 511 | 463 | 449
26 | CC1Cc2ccccc2N1NC(=O)c1ccc(Cl)c([S+](N)(=O)[O-])c1 (configuration not stated) | 583 | 488 | 531
27 | C[C@](N)(Cc1ccc(O)c(O)c1)C(=O)O | 477 | 475 | 524
28 | CO[C@H]1C[C@@H]2CC[C@@H](C)[C@@](O)(O2)C(=O)C(=O)N2CCCC[C@H]2C(=O)O[C@H]([C@H](C)C[C@@H]2CC[C@@H](OC(=O)C(C)(CO)CO)[C@H](OC)C2)CC(=O)[C@H](C)/C=C(\C)[C@@H](O)[C@@H](OC)C(=O)[C@H](C)C[C@H](C)/C=C/C=C/C=C/1C | 483 | 488 | 530
29 | Oc1cc2c(cc1O)C1c3ccc(O)c(O)c3OCC1(O)C2 (configuration not stated) | 542 | 546 | 527
30 | C[C@H]1CC[C@H](n2c3cnccc3c3cnc(Nc4ccc5c(n4)CCN(C(=O)CO)C5)nc32)CC1 | 622 | 601 | 596
31 | COc1ccc2cccc(CCNC(C)=O)c2c1 | 589 | 515 | 579
32 | N=C(N)NN.N=C(N)NN.O=S(=O)(O)O | 559 | 503 | 524
33 | CC(C)OC(=O)C(C)(C)Oc1ccc(C(=O)c2ccc(Cl)cc2)cc1 | 608 | 593 | 517
34 | CN1C(=O)N(c2cc(Cl)cc(Cl)c2)C(=O)[C@]12CN(Cc1cc(C(=O)O)cs1)C[C@H]2c1ccc(C#N)cc1 | 420 | 401 | 404
35 | CNC(=O)c1ccc(N2C(=S)N(c3ccc(C#N)c(C(F)(F)F)c3)C(=O)C23CCC3)cc1F | 500 | 488 | 534
36 | C[C@H]1C[C@@H]2[C@H](CC[C@@]3(C)[C@H]2CC[C@]3(OC(C)=O)C(C)=O)[C@@]\4(C)CCC(=O)\C=C14 | 618 | 554 | 557
37 | Nc1nc(F)nc2c1ncn2[C@@H]1O[C@H](CO)[C@@H](O)[C@@H]1O | 577 | 528 | 510
38 | CCN1C(=O)\C(=C/C2=CN=C(NC3=CC=C(C=C3)N4CCN(C)CC4)N=C12)C5=C(Cl)C=C(C=C5)C6=CN=CS6 | 604 | 562 | 568
39 | CC(C)(C)OC(=O)N[C@H]1CCCCC/C=C\[C@@H]2C[C@@]2(C(=O)N[S+](=O)([O-])C2CC2)NC(=O)[C@@H]2C[C@@H](OC(=O)N3Cc4cccc(F)c4C3)CN2C1=O | 503 | 414 | 472
40 | CCCCOC(=O)N[S+](=O)([O-])c1sc(CC(C)C)cc1-c1ccc(Cn2ccnc2)cc1 | 412 | 357 | 460
41 | COc1nccc(-c2c(-c3ccc(F)cc3)ncn2C2CCNCC2)n1 | 482 | 429 | 423
42 | OCCN1C[C@H](O)[C@@H](O)[C@H](O)[C@H]1CO | 540 | 519 | 489
43 | CCOC(=O)N1CCN(/[N+]([O-])=N/Oc2ccc([N+](=O)[O-])cc2[N+](=O)[O-])CC1 | 644 | 544 | 521
44 | COc1cc2ncnc(-n3nc(-c4ccccn4)nc3N)c2cc1OC | 551 | 458 | 489
